As a reminder, the Ki is the equilibrium dissociation constant of an inhibitor or competing ligand from its target.

Where two headings read alike, the source gives them in different places. Marks after values point to notes of the source that are not given here.

Assay [1] addresses T1, human 5-HT1A receptor (Homo sapiens, UniProt P08908).
T1 construct: purchased PerkinElmer; host or cells: CHO-K1
T1 sequence (P08908 1-422): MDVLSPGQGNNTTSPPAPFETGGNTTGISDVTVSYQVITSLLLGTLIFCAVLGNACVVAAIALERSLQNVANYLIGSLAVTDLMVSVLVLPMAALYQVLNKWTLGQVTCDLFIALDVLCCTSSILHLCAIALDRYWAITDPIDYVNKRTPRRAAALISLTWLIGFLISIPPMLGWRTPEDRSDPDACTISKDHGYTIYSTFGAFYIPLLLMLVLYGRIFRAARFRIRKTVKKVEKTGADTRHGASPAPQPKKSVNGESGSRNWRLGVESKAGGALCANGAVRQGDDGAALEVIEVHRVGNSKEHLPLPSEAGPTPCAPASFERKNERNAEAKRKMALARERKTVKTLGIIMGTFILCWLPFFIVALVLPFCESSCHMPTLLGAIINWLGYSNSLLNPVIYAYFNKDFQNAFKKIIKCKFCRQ
Nature of the assay: 5-HT1A receptor radioligand binding ([3H]-8-OH-DPAT, CHO-K1 membranes). The settings on record: displacement of [3H]-8-OH-DPAT, mean ± SEM of three experiments, NC = not converged. The procedure: (§1) Each compound was tested in 6 concentrations from 10–5 to 10–10 M (final concentration).
(§2) All assays were carried out in duplicates.

In assay [2] the target is T2, human serotonin transporter (Homo sapiens, UniProt P31645).
T2 construct: purchased PerkinElmer; host or cells: HEK-293
The experiment in a line: Serotonin transporter radioligand binding ([3H]-imipramine, HEK-293 membranes). The following applies: displacement of [3H]-imipramine, HEK-293 membranes; mean ± SEM of three experiments; read-out: Ki ± SEM SERT. The method, then:
as §1, §2

In another assay the target is T3, 5-HT2A receptor (Rattus norvegicus, UniProt P14842).
T3 construct: and for the native 5-HT2A receptor; from tissue; host or cells: rat cortex
Nature of the assay: 5-HT2A binding assay ([3H]-ketanserin, rat cortex). The settings on record: read-out: Ki ± SEM 5-HT2A. The method, then:
(§3) Specifically, we assessed the displacement of [^3H]-raclopride, [^3H]-LSD, and [^3H]-5-CT from the cloned human D2L, 5-HT6, and 5-HT7 receptor, respectively, stably expressed in HEK293 cells, and [^3H]-ketanserin from the 5-HT2A receptor from the rat cortex.
Tissue preparations (rat cortex) and competition binding experiments for 5-HT2A receptors were carried out according to a previously described, standard technique using 0.5 nM of [^3H]-ketanserin as the radioligand and 10 μM of methysergide to determine non-specific binding. Following 20 min of incubation, the samples containing receptor homogenates and the investigated compounds (7–9 concentrations run in triplicate) were rapidly filtered under vacuum through GF/B glass fibre filters; the filters were washed extensively with an ice-cold buffer using a Brandel harvester. Bound radioactivity was measured by scintillation counting using a liquid scintillation cocktail. The inhibition constants (Ki) were calculated using the Cheng–Prusoff equation. Results are expressed as the means of at least three separate experiments.

The target of a further assay is T4, human 5-HT6 receptor (Homo sapiens, UniProt P50406).
T4 construct: expressed in transfected cells; host or cells: HEK293
Nature of the assay: 5-HT6 receptor binding ([3H]-LSD, HEK293 cells). The settings on record: cloned human receptor in HEK293, read-out: Ki ± SEM 5-HT6. The procedure: as §3
(§4) For membrane preparation, cells were subcultured in 10 cm-diameter dishes, grown to 90% confluence, washed twice with prewarmed to 37 °C phosphate buffered saline (PBS) and pelleted by centrifugation (200 g) in PBS containing 0.1 mM EDTA and 1 mM dithiothreitol. Prior to membrane preparation, pellets were stored at −80 °C.
(§5) Cell pellets were thawed and homogenised in 20 volumes of assay buffer using an Ultra Turrax tissue homogeniser and centrifuged twice at […] for 20 min at 4 °C, with incubation for 15 min at 37 °C in between. The composition of the assay buffers was as follows: for 5-HT6R, 50 mM Tris-HCl, 0.5 mM EDTA and 4 mM MgCl2; and for 5-HT7bR, 50 mM Tris-HCl, 4 mM MgCl2, 10 μM pargyline and 0.1% ascorbate. All assays were incubated in a total volume of 200 μL in 96-well microtitre plates for 1 h at 37 °C. The process of equilibration was terminated by rapid filtration through Unifilter plates with a 96-well cell harvester, and radioactivity retained on the filters was quantified on a Microbeta plate reader. For displacement studies, the assay samples contained radioligands such as 2 nM [^3H]-LSD (85.2 Ci/mmol for 5-HT6R) or 0.6 nM [^3H]-5-CT (39.2 Ci/mmol) for 5-HT7R. Non-specific binding was defined using 10 μM methiothepine in the 5-HT6R or 5-HT7R binding experiments, respectively. Each compound was tested in triplicate at 7–8 concentrations (10^−11–10^−4 M). The inhibition constants (Ki) were calculated using the Cheng–Prusoff equation. Membrane preparation and general assay procedures for cloned receptors were adjusted to a 96-microwell format based on protocols previously described by us.

For a further assay, the target named is T5, human 5-HT7b receptor (Homo sapiens, UniProt P34969).
T5 construct: expressed in transfected cells; host or cells: HEK293
Nature of the assay: 5-HT7 receptor binding ([3H]-5-CT, HEK293 cells). The following applies: cloned human receptor in HEK293, read-out: Ki ± SEM 5-TH7. The procedure:
as §3, §4, §5

The next assay deals with human D2 receptor (Homo sapiens, UniProt P14416). Nature of the assay: D2 receptor binding assay. The settings on record: cloned human D2 receptor; read-out: Ki ± SEM D2. The method, then: as §3, §1, §2
The next assay concerns the target α1-adrenoceptor. The experiment in a line: ADRA1 receptor binding assay ([3H]-prazosin, rat cortex). The following applies: read-out: Ki ± SEM α1.
Assay [3] concerns the target human norepinephrine transporter (Homo sapiens, UniProt P23975). Nature of the assay: NET binding assay ([3H]-nisoxetine, MDCK membranes).
Description: We performed radioligand binding assays using membranes from CHO-K1 cells stably transfected with human DAT and membranes from MDCK cells stably transfected with human NET. This was accomplished by assessing the displacement of [^3H]-WIN35,428 and [^3H]-nisoxetine from cloned human DAT and NET, respectively.
(§6) Ten-micromolar stock solutions of tested compounds were prepared in DMSO. […] Each compound was tested in a screening assay at final concentrations of 10 µM and 1 µM. Results were expressed as percent inhibition of radioligand binding. Reference compounds were tested in 8 concentrations from 10^−5 to 10^−12 M (final concentration).
Radioligand binding was performed using membranes from MDCK cells stably transfected with the human norepinephrine transporter (PerkinElmer, Waltham, MA, USA). All assays were carried out in duplicates. Measures of 50 µL of working solution of the tested compounds, 50 µL of [^3H]-nisoxetine (final concentration 4 nM) and 150 µL of diluted membranes (3 µg protein per well) prepared in assay buffer (50 mM Tris-HCl, pH 7.4, 120 mM NaCl; 5 mM KCl) were transferred to a polypropylene 96-well microplate using the 96-well pipetting station Rainin Liquidator (MettlerToledo, Beverly, MA, USA). […] The microplate was covered with sealing tape, mixed and incubated for 60 min at 4 °C. The reaction was terminated by rapid filtration through GF/C filter mate pre-soaked with 0.5% polyethyleneimine for 30 min. Ten rapid washes with 200 µL of 50 mM Tris buffer (4 °C, pH 7.4) were performed using the automated harvester system Harvester-96 MACH III FM (Tomtec, Hamden, CT, USA). […] Radioactivity was counted using a MicroBeta2 scintillation counter (PerkinElmer, Turku, Finland). Data were fitted to a one-site curve-fitting equation with Prism 5 (GraphPad Software), and Ki values were estimated using the Cheng–Prusoff equation.
In assay [4] the target is human dopamine transporter (Homo sapiens, UniProt Q01959). The experiment in a line: DAT binding assay ([3H]-WIN 35,428, CHO-K1 membranes).
Description: as §6
Radioligand binding was performed using membranes from CHO-K1 cells stably transfected with the human dopamine transporter (PerkinElmer, Waltham, MA, USA). All assays were carried out in duplicates. […] The microplate was covered with sealing tape, mixed and incubated for 120 min at 4 °C. The reaction was terminated by rapid filtration through GF/C filter mate pre-soaked with 0.5% polyethyleneimine for 30 min. Ten rapid washes with 200 µL of 50 mM Tris buffer (4 °C, pH 7.4) were performed using the automated harvester system Harvester-96 MACH III FM (Tomtec, Hamden, CT, USA). […] Radioactivity was counted using a MicroBeta2 scintillation counter (PerkinElmer, Turku, Finland). Data were fitted to a one-site curve-fitting equation with Prism 5 (GraphPad Software), and Ki values were estimated using the Cheng–Prusoff equation.
The target of assay [5] is T1, human 5-HT1A receptor. The settings on record: previously described 1H-indole analogues; read-out: Ki ± SEM 5-HT1A; cited from earlier work.
The target of assay [6] is T2, human serotonin transporter. The settings on record: previously described 1H-indole analogues; read-out: Ki ± SEM SERT; cited from earlier work.

T2 sequence (P31645 whole entry): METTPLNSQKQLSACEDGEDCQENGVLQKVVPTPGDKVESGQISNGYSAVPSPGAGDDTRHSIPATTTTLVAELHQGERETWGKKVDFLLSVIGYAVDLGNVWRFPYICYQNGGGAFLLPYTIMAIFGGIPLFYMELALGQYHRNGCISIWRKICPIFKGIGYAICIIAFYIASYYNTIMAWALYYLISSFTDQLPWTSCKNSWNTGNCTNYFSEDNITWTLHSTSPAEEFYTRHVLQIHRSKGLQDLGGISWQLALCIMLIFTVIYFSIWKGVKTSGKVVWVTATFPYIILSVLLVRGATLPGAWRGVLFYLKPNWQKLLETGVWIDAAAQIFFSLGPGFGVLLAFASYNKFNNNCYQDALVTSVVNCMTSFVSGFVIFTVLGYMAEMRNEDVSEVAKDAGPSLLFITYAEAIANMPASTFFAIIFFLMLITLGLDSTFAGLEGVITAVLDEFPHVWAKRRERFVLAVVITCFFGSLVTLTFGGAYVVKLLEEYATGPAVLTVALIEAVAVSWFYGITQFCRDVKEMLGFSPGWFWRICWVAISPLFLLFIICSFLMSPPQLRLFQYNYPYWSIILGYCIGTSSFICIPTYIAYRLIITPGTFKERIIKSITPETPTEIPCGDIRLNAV
human dopamine transporter, sequence (Q01959 whole entry): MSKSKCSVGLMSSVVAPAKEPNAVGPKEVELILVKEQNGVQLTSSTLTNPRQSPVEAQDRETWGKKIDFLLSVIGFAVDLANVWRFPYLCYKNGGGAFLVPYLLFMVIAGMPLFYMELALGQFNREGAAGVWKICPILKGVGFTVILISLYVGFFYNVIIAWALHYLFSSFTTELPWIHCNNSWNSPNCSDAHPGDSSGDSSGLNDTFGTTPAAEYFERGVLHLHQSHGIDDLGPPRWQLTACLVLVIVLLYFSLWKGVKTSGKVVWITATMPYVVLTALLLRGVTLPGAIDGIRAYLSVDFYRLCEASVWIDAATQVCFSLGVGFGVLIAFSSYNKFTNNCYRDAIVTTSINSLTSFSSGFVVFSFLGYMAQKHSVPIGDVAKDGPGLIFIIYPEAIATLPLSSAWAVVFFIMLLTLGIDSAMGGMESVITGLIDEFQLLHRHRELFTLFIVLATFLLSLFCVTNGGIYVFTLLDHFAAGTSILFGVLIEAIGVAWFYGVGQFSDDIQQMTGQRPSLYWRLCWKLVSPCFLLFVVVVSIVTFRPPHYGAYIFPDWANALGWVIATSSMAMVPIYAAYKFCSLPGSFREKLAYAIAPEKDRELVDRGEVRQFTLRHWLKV
human D2 receptor, sequence (P14416 whole entry): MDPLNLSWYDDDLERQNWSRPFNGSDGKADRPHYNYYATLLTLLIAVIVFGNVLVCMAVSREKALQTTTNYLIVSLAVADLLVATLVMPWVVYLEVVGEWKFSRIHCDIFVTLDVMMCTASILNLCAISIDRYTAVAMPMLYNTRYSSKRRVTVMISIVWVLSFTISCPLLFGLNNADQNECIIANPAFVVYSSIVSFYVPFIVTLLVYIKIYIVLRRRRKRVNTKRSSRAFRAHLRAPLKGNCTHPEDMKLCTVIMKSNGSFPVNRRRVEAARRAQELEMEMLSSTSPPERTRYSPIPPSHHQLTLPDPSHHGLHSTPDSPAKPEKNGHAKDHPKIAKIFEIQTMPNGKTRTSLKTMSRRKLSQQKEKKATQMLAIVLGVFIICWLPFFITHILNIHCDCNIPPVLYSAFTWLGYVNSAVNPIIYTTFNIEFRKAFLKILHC
human norepinephrine transporter, sequence (P23975 whole entry): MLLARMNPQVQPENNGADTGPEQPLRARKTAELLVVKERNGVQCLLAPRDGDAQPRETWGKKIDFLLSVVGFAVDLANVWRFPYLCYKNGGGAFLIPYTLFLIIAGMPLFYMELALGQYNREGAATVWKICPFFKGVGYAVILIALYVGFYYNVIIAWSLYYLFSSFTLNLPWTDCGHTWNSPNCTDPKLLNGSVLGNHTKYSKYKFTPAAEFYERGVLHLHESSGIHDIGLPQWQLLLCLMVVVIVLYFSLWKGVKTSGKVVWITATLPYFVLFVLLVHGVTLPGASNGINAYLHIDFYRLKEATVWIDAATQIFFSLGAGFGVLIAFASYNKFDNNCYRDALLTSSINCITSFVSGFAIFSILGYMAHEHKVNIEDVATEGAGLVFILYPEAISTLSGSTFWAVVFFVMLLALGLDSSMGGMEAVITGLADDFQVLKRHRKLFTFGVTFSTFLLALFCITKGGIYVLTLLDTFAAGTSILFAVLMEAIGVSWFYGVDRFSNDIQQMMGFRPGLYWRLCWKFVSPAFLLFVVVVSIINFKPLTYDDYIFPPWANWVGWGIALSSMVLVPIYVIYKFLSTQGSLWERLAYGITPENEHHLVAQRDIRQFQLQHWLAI
T4 sequence (P50406 whole entry): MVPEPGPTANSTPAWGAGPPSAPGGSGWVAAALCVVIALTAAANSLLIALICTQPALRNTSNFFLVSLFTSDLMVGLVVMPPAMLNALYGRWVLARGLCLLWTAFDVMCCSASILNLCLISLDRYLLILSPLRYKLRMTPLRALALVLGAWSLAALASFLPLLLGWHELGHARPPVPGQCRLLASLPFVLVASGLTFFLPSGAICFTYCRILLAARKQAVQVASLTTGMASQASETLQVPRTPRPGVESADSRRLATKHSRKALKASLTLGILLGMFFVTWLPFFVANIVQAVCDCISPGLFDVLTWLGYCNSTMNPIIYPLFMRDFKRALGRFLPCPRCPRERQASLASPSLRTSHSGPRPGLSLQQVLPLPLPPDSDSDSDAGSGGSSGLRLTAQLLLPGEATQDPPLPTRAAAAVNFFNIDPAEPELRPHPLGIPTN
T5 sequence (P34969 1-432 limits assumed): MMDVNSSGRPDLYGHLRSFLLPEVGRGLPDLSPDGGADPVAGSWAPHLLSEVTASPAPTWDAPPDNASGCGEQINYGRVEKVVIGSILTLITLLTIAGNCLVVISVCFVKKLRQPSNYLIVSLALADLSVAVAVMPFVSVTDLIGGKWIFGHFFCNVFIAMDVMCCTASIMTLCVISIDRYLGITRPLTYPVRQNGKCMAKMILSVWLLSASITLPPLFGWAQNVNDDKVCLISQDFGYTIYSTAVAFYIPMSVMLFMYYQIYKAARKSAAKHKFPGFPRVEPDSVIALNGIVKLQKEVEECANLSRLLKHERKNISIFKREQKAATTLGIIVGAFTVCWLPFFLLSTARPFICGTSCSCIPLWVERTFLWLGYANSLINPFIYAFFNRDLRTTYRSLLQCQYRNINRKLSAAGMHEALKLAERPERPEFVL
T3 sequence (P14842 whole entry): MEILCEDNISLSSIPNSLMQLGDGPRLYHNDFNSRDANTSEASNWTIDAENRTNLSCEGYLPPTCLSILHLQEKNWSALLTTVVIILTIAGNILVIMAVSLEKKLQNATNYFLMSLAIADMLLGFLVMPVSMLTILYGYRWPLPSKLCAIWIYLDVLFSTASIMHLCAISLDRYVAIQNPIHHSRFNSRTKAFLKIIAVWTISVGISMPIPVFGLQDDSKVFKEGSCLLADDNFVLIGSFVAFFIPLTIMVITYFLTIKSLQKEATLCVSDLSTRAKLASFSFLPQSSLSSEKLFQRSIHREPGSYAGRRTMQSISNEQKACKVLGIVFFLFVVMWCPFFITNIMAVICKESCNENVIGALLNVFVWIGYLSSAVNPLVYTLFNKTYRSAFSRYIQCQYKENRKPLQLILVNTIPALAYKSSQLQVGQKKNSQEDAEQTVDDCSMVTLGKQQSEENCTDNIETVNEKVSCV

Consider `O=C1CC(c2c[nH]c3ccccc23)C(=O)N1CCCCN1CC=C(c2c[nH]c3ncccc23)CC1` (stereo not drawn) [Compound 4, 1-(4-(4-(1H-Pyrrolo[2,3-b]pyridin-3-yl)-3,6-dihydropyridin-1(2H)-yl)butyl)-3-(1H-indol-3-yl)pyrrolidine-2,5-dione], for which the Ki at human 5-HT1A receptor [1] amounted to 660 ± 60.2 nM; in assay [2], 47 ± 5 nM; on 5-HT2A receptor, 1400 ± 71 nM; on human 5-HT6 receptor it was 1690 ± 186 nM; on human 5-HT7b receptor it was 1420 ± 172 nM; on human D2 receptor it was 78 ± 7 nM. The inhibitory constant (Ki) stood at 87 ± 2 nM at α1-adrenoceptor and 167 ± 13.8 nM in [3]. In [3] (ratio of Ki values), the “Selectivity Ratio hNET/hSERT” value is 3.5.
With `COc1ccc2[nH]cc(C3CC(=O)N(CCCN4CC=C(c5c[nH]c6ncccc56)CC4)C3=O)c2c1` (stereo not drawn) [Compound 8, 1-(3-(4-(1H-Pyrrolo[2,3-b]pyridin-3-yl)-3,6-dihydropyridin-1(2H)-yl)propyl)-3-(5-methoxy-1H-indol-3-yl)pyrrolidine-2,5-dione], the inhibition constant (Ki) in assay [2] was found to be 23 ± 2.8 nM; on 5-HT2A receptor it was 727 ± 43 nM; at human 5-HT6 receptor, 2970 ± 138 nM; at human 5-HT7b receptor, 1530 ± 76 nM; at α1-adrenoceptor it was 265 ± 6.5 nM; in assay [4], 663 ± 15 nM. Moreover, the “hNET screening procedure, displacement %” value in assay [3] (at 1 µM) amounted to 43% ^a.
As for `O=C1CC(c2c[nH]c3ccc(F)cc23)C(=O)N1CCCN1CC=C(c2c[nH]c3ncccc23)CC1` (stereo not drawn) [Compound 11, 1-(3-(4-(1H-Pyrrolo[2,3-b]pyridin-3-yl)-3,6-dihydropyridin-1(2H)-yl)propyl)-3-(5-fluoro-1H-indol-3-yl)pyrrolidine-2,5-dione], the Ki at human 5-HT1A receptor [1] was 128 nM; in assay [2] it was 9.2 ± 0.6 nM; on 5-HT2A receptor, 1160 ± 96 nM; on human 5-HT6 receptor, 1290 ± 147 nM; on human 5-HT7b receptor, 1130 ± 89 nM; at human D2 receptor it was 51 ± 6 nM. In assay [4], the affinity, expressed as Ki, was 288 ± 25.2 nM. Besides, the “Selectivity Ratio hDAT/hSERT” value in assay [4] (ratio of Ki values) amounted to 31.3.
As to `O=C1CC(c2c[nH]c3ccc(F)cc23)C(=O)N1CCCN1CC=C(c2c[nH]c3ccccc23)CC1` (stereo not drawn) [Compound 20], the Ki is 237 ± 17 nM on 5-HT2A receptor; 257 ± 17 nM on human 5-HT6 receptor; 30 ± 4 nM at human 5-HT7b receptor; 56 ± 7 nM on human D2 receptor; 190 ± 8.5 nM at human 5-HT1A receptor [5]; 1.5 ± 0.2 nM in [6].

The record behind these values is article PMC11508649 (International Journal of Molecular Sciences, 2024).
